According to PMC5840523, “Assessment of a pretomanid analogue library for African trypanosomiasis: Hit-to-lead studies on 6-substituted 2-nitro-6,7-dihydro-5H-imidazo[2,1-b][1,3]thiazine 8-oxides” (Bioorganic & Medicinal Chemistry Letters, 2018):
In brackets after ≈: the same amount, converted by molar mass. Where two headings read alike, the source gives them in different places. Each block holds one compound with its values, some of them ahead of it.

Legend:
in vitro = conditions: dog, MDCK-MDR1, Permeability Papp
Mouse liver S9 stability = type: in vitro ADME; conditions: CD-1, mouse, mouse liver S9 subcellular fraction, half-life in mouse liver S9 fraction; read-out: Mouse S9 t1/2
T. b. brucei 427 [1] = experiment: T. b. brucei 427 growth inhibition (Scynexis); type: cell-based, Trypanosoma brucei brucei; conditions: for Selectivity Index: L929 vs T. b. brucei; for IC50: Trypanosoma brucei, growth inhibition of T. b. brucei 427, mean ± SD
L929 mouse fibroblasts = experiment: Cytotoxicity toward L929 mouse fibroblasts (Scynexis); type: cell-based
[2] = Kinetic aqueous solubility in pH 7.4 PBS; type: physicochemical
Source text: Table 1 Inhibitory potency, metabolic stability, aqueous solubility, and MDCK-MDR1 cell permeability for 15 screening hits against T. b. brucei. | column: Solubility ^c / (µg/mL)

T. b. brucei 427 [3] = experiment: T. b. brucei growth inhibition (University of Antwerp); type: cell-based, Trypanosoma brucei brucei; conditions: for IC50: T. b. brucei 427, mean of 2 to 5 determinations, read-out: IC50 T. b. bruc
Leishmania infantum = experiment: L. infantum growth inhibition (University of Antwerp); type: cell-based; conditions: mean of 2 to 5 determinations
Trypanosoma cruzi = experiment: T. cruzi growth inhibition (University of Antwerp); type: cell-based; conditions: mean of 2 to 5 determinations
[4] = tested on: human lung fibroblasts (MRC-5 cells); experiment: Cytotoxicity toward MRC-5 cells (University of Antwerp); type: cell-based
T. b. rhodesiense = T. b. rhodesiense growth inhibition (University of Antwerp); type: cell-based, Trypanosoma brucei rhodesiense; conditions: mean of 2 to 5 determinations, read-out: IC50 T. b. rhod
T. b. brucei (EATRO 110) = experiment: Acute (stage 1) HAT infection mouse model; type: in vivo, T. b. brucei; female Swiss Webster mice; conditions: 2 mg/kg i.p. once daily for 4 days
Procedure: Therefore, 24 was examined in a stage 1 HAT mouse model.[14] Briefly, dosing was orally once daily for four days, starting 24 h postinfection, and parasitemia was assessed weekly via tail vein blood smears (see the Supporting Information). Excellent activity was observed (Table 4), with 24 providing complete cures (i.e. parasite free blood smears after >30 days) to all mice at doses as low as 5 mg/kg, similar to the control drug pentamidine (given i.p. at 2 mg/kg), whereas the vehicle only mice died on day 7. […] Here, oral dosing of 24 (at 12.5 to 50 mg/kg once daily for seven days from day 21 postinfection) led to significant increases in survival times in comparison to untreated controls (66–70 days vs 31 days; Table 5), although cure rates were inadequate (0–20%). […]
Mouse Model f or Acu te HAT Inf ection. Compound 24 was tested for in vivo effi cac y against acute HAT infection caused b y T. b. brucei (EATRO 110 strain) at the Haskins Laboratories, Pace Universit y. […] Infected animals or th ose showing si gns of infectionwer e euthanized.Untreated infected contr ol animals died after 5-7 days; mice remaining parasite free for more than 30 da ys beyond the end of the tr eatment period w er e con sidered cur ed. […]

T. b. brucei (TREU 667) = experiment: CNS (stage 2, chronic) HAT infection mouse model; type: in vivo, T. b. brucei; female Swiss Webster mice
Procedure: Therefore, 24 was examined in a stage 1 HAT mouse model.[14] Briefly, dosing was orally once daily for four days, starting 24 h postinfection, and parasitemia was assessed weekly via tail vein blood smears (see the Supporting Information). Excellent activity was observed (Table 4), with 24 providing complete cures (i.e. parasite free blood smears after >30 days) to all mice at doses as low as 5 mg/kg, similar to the control drug pentamidine (given i.p. at 2 mg/kg), whereas the vehicle only mice died on day 7. […]
Mouse Model for Chronic HAT Inf ection. Compound 24 was tested for in vi vo efficac y against chronic HAT infection caused b y T. b. brucei (TREU 667 strain) at the Haskin s Laboratories, Pace Universit y. […]
suspension formulation (0.8% CMC, 0.1% SDS in water) to groups of 8 or 10infected f emal e Swiss Webster mice, starting 21 d postinfection, according to a report ed method. 5 Animals remaining parasite free for more than 180 da ys beyond the end of the treatment period were […]

[5] = Homo sapiens, MRC5, cytotoxicity toward human lung fibroblasts
[6] = Trypanosoma brucei, RHODESIENSE
[7] = cytotoxicity toward human lung fibroblasts
[8] = 10 mg/kg single i.p. dose on day 4
[9] = 10 mg/kg single i.p. dose on day 21

Compound: CSc1ccc(OCc2ncc([N+](=O)[O-])n2C)cc1 [Compound 4, fexinidazole, reference compound]
Papp at 1 h, 3 µM (in vitro): 73.2 ×10⁻⁶ cm/s

Compound: CC1(COCc2ccc(OCc3ccccc3)cc2)Cn2cc([N+](=O)[O-])nc2[S+]1[O-] (stereo not drawn) [Compound 11]
half-life (Mouse liver S9 stability): < 70 min | Selectivity Index (T. b. brucei 427 [1]): >77 | IC50 (T. b. brucei 427 [1]): 0.13 ± 0.04 µg/mL (≈ 0.304 µM) | IC50 (L929 mouse fibroblasts): > 10 µg/mL | Papp at 1 h, 3 µM (in vitro): 65.1 ×10⁻⁶ cm/s | solubility [2]: 1.3 µg/mL (≈ 3.04 µM)

Compound: O=[N+]([O-])c1cn2c(n1)SC(COCc1ccc(OCc3ccccc3)cc1)C2 (stereo not drawn) [Compound 15]
half-life (Mouse liver S9 stability): < 70 min | Selectivity Index (T. b. brucei 427 [1]): >22 | IC50 (T. b. brucei 427 [1]): 0.46 ± 0.21 µg/mL (≈ 1.16 µM) | IC50 (L929 mouse fibroblasts): > 10 µg/mL | Papp at 1 h, 3 µM (in vitro): 58.3 ×10⁻⁶ cm/s | solubility [2]: 1.2 µg/mL (≈ 3.02 µM)

Compound: CC1(COCc2ccc(OCc3ccccc3)cc2)Cn2cc([N+](=O)[O-])nc2S1 (stereo not drawn) [Compound 20]
Selectivity Index (T. b. brucei 427 [1]): >4.5 | IC50 (T. b. brucei 427 [1]): 2.2 ± 0.7 µg/mL (≈ 5.35 µM) | IC50 (L929 mouse fibroblasts): > 10 µg/mL | Papp at 1 h, 3 µM (in vitro): 46.5 ×10⁻⁶ cm/s | solubility [2]: 1.2 µg/mL (≈ 2.92 µM)

Compound: COc1ccc(-c2ccc(O[C@@H]3COc4nc([N+](=O)[O-])cn4C3)nc2)cn1 [Compound 21]
half-life (Mouse liver S9 stability): 239 min | Selectivity Index (T. b. brucei 427 [1]): >3.7 | IC50 (T. b. brucei 427 [1]): 2.7 ± 0.5 µg/mL (≈ 7.31 µM) | IC50 (L929 mouse fibroblasts): > 10 µg/mL | Papp at 1 h, 3 µM (in vitro): 76.9 ×10⁻⁶ cm/s | solubility [2]: 18 µg/mL (≈ 48.7 µM)

Compound: O=[N+]([O-])c1cn2c(n1)OC[C@@H](Oc1cc(-c3ccc(C(F)(F)F)nc3)ccn1)C2 [Compound 22]
half-life (Mouse liver S9 stability): 146 min | Selectivity Index (T. b. brucei 427 [1]): >3.6 | IC50 (T. b. brucei 427 [1]): 2.8 ± 0.2 µg/mL (≈ 6.87 µM) | IC50 (L929 mouse fibroblasts): > 10 µg/mL | Papp at 1 h, 3 µM (in vitro): 79.3 ×10⁻⁶ cm/s | solubility [2]: 10 µg/mL (≈ 24.6 µM)

Compound: CN1CC(OCc2ccc(OCc3ccccc3)cc2)Cn2nc([N+](=O)[O-])cc21 (stereo not drawn) [Compound 23]
half-life (Mouse liver S9 stability): < 70 min | Selectivity Index (T. b. brucei 427 [1]): >3.3 | IC50 (T. b. brucei 427 [1]): 3 ± 0.9 µg/mL (≈ 7.61 µM) | IC50 (L929 mouse fibroblasts): > 10 µg/mL | Papp at 1 h, 3 µM (in vitro): 36.3 ×10⁻⁶ cm/s | solubility [2]: 2.4 µg/mL (≈ 6.08 µM)

Compound: O=[N+]([O-])c1cn2c(n1)SCC(Oc1ccc(OC(F)(F)F)cc1)C2 (stereo not drawn) [Compound 28]
IC50 (T. b. brucei 427 [3]; Trypanosoma brucei): 40 µM | IC50 (Leishmania infantum; Leishmania infantum): 7 µM | IC50 (Trypanosoma cruzi; Trypanosoma cruzi): 2200 nM | IC50 [4, 5]: 51 µM | IC50 (T. b. rhodesiense; [6]): 59 µM

Compound: N=C(N)c1ccc(OCCCCCOc2ccc(C(=N)N)cc2)cc1 [Pentamidine, pentamidine, reference compound]
Cured (T. b. brucei (EATRO 110)): 100% | Cured/Total (T. b. brucei (EATRO 110)): 3/3 | Mean survival (T. b. brucei (EATRO 110)): >30 days

Compound: Berenil [reference compound]
Cured (T. b. brucei (TREU 667); [8]): 100% | Cured/Total (T. b. brucei (TREU 667); [8]): 5/5 | Cured (T. b. brucei (TREU 667); [9]): 0% | Cured/Total (T. b. brucei (TREU 667); [9]): 0/5 | Mean relapse time (T. b. brucei (TREU 667); [9]): 41 days

Second part, led by results:

IC50 (Trypanosoma cruzi; Trypanosoma cruzi): 5300 nM
Compound: O=[N+]([O-])c1cn2c(n1)SCC(Oc1ccc(C(F)(F)F)cn1)C2 (stereo not drawn) [Compound 29]
IC50 (T. b. brucei 427 [3]; Trypanosoma brucei): > 64 µM | IC50 (Leishmania infantum; Leishmania infantum): 10 µM | IC50 [4, 5]: > 64 µM | IC50 (T. b. rhodesiense; [6]): > 64 µM

IC50 (Trypanosoma cruzi; Trypanosoma cruzi): 1100 nM
Compound: O=[N+]([O-])c1cn2c(n1)SCC(OCc1ccc(OC(F)(F)F)cc1)C2 (stereo not drawn) [Compound 30]
IC50 (T. b. brucei 427 [3]; Trypanosoma brucei): 44 µM | IC50 (Leishmania infantum; Leishmania infantum): 55 µM | IC50 [4, 5]: > 64 µM | IC50 (T. b. rhodesiense; [6]): 36 µM

IC50 (Trypanosoma cruzi; Trypanosoma cruzi): 490 nM
Compound: O=[N+]([O-])c1cn2c(n1)SCC(OCc1ccc(OCc3ccccc3)cc1)C2 (stereo not drawn) [Compound 31]
IC50 (T. b. brucei 427 [3]; Trypanosoma brucei): 1.4 µM | IC50 (Leishmania infantum; Leishmania infantum): 45 µM | IC50 [4, 5]: > 64 µM | IC50 (T. b. rhodesiense; [6]): 1.2 µM

IC50 (Trypanosoma cruzi; Trypanosoma cruzi): 1400 nM
Compound: O=[N+]([O-])c1cn2c(n1)SCC(OCc1ccc(-c3ccc(OC(F)(F)F)cc3)cn1)C2 (stereo not drawn) [Compound 32]
IC50 (T. b. brucei 427 [3]; Trypanosoma brucei): 4.3 µM | IC50 (Leishmania infantum; Leishmania infantum): 7.5 µM | IC50 [4, 5]: 21 µM | IC50 (T. b. rhodesiense; [6]): 2.1 µM

IC50 (Trypanosoma cruzi): 2100 nM
Compound: O=[N+]([O-])c1cn2c(n1)[S+]([O-])CC(Oc1ccc(OC(F)(F)F)cc1)C2 (stereo not drawn) [Compound 33]
potency relative to 12 against T. b. brucei (fold less potent) (T. b. brucei 427 [3]): 4- to 6 fold | IC50 (T. b. brucei 427 [3]): 1.6 µM | IC50 (Leishmania infantum): 7 µM | IC50 [4, 7]: 23 µM | IC50 (T. b. rhodesiense): 0.98 µM

IC50 (Trypanosoma cruzi): 4100 nM
Compound: O=[N+]([O-])c1cn2c(n1)[S+]([O-])CC(Oc1ccc(C(F)(F)F)cn1)C2 (stereo not drawn) [Compound 34]
potency relative to 12 against T. b. brucei (fold less potent) (T. b. brucei 427 [3]): 4- to 6 fold | IC50 (T. b. brucei 427 [3]): 1.2 µM | IC50 (Leishmania infantum): 13 µM | IC50 [4, 7]: > 64 µM | IC50 (T. b. rhodesiense): 0.51 µM

IC50 (Trypanosoma cruzi): 7700 nM
Compound: O=[N+]([O-])c1cn2c(n1)[S+]([O-])CC(Oc1ccc(OC(F)(F)F)cc1)C2 (stereo not drawn) [Compound 36]
IC50 (T. b. brucei 427 [3]): 55 µM | IC50 (Leishmania infantum): > 64 µM | IC50 [4, 7]: > 64 µM | IC50 (T. b. rhodesiense): 27 µM

IC50 (Trypanosoma cruzi): 12000 nM
Compound: O=[N+]([O-])c1cn2c(n1)[S+]([O-])CC(Oc1ccc(C(F)(F)F)cn1)C2 (stereo not drawn) [Compound 37]
IC50 (T. b. brucei 427 [3]): 17 µM | IC50 (Leishmania infantum): 41 µM | IC50 [4, 7]: 30 µM | IC50 (T. b. rhodesiense): 9.9 µM

IC50 (Trypanosoma cruzi): 9100 nM
Compound: O=[N+]([O-])c1cn2c(n1)[S+]([O-])CC(OCc1ccc(OC(F)(F)F)cc1)C2 (stereo not drawn) [Compound 38]
IC50 (T. b. brucei 427 [3]): 5.6 µM | IC50 (Leishmania infantum): > 64 µM | IC50 [4, 7]: > 64 µM | IC50 (T. b. rhodesiense): 5.1 µM

IC50 (Trypanosoma cruzi): 140 nM
Compound: O=[N+]([O-])c1cn2c(n1)[S+]([O-])CC(OCc1ccc(-c3ccc(OC(F)(F)F)cc3)cn1)C2 (stereo not drawn) [Compound 39, 2-Nitro-6-({5-[4-(trifluoromethoxy)phenyl]pyridin-2-yl}methoxy)-6,7-dihydro-5H-imidazo[2,1-b][1,3]thiazine 8-oxide]
IC50 (T. b. brucei 427 [3]): 0.075 µM | IC50 (Leishmania infantum): 2 µM | IC50 [4, 7]: 54 µM | IC50 (T. b. rhodesiense): 0.1 µM

IC50 (Trypanosoma cruzi; Trypanosoma cruzi): 3500 nM
Compound: O=[N+]([O-])c1cn2c(n1)S(=O)(=O)CC(Oc1ccc(OC(F)(F)F)cc1)C2 (stereo not drawn) [Compound 40]
IC50 (T. b. brucei 427 [3]; Trypanosoma brucei): 15 µM | IC50 (Leishmania infantum; Leishmania infantum): 32 µM | IC50 [4, 5]: > 64 µM | IC50 (T. b. rhodesiense; [6]): 13 µM

IC50 (Trypanosoma cruzi; Trypanosoma cruzi): 2600 nM
Compound: O=[N+]([O-])c1cn2c(n1)S(=O)(=O)CC(Oc1ccc(C(F)(F)F)cn1)C2 (stereo not drawn) [Compound 41]
IC50 (T. b. brucei 427 [3]; Trypanosoma brucei): 19 µM | IC50 (Leishmania infantum; Leishmania infantum): 30 µM | IC50 [4, 5]: 46 µM | IC50 (T. b. rhodesiense; [6]): 11 µM
